Measurements taken from patent US6355799B1, “Substituted benzene compounds, process for their preparation, and herbicidal and defoliant compositions containing them” (ISK Americas Incorporated, priority 1997, dated 2002).

How the values were obtained:
Type in all cases: in vivo
[1] = test system: upland rice (Oryza sp., var. Tebonnet, RICE); assay: Post-emerge test, crop safety; details: rating scale 0-100 (0 no damage, 100 complete death), 14 days after application
How it was run: (§1)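 Compounds in acetone were track-sprayed at 187 l/ha, 15–1000 g ai/ha, onto sandy loam pots. Pre-emerge seeds were sown one day before spraying, with surface watering afterwards. Post-emerge plants were at the 2–3 leaf stage and sprayed with 0.25% v/v non-ionic surfactant. Injury was rated 0–100 at 14 days.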

[2] = test system: field corn (Zea mays L., var. Dekalb 535, CORN); assay: Post-emerge test, crop safety; details: rating scale 0-100 (0 no damage, 100 complete death), 14 days after application
How it was run: as §1

[3] = test system: upland rice (Oryza sp., var. Tebonnet, RICE); assay: Pre-emerge test, crop safety; details: rating scale 0-100, 14 days after application
How it was run: (§2)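 Sandy loam pots; pre-emerge: sown 1 d pre-spray, surface-watered after, then bottom-watered. Post-emerge: sown 8–21 d before, 2–3 leaf stage, + 0.25% v/v NIS, bottom-watered. Acetone, 187 l/ha track spray, 15–1000 g ai/ha. 0–100 injury score, day 14.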

[4] = test system: field corn (Zea mays L., var. Dekalb 535, CORN); assay: Pre-emerge test, crop safety; details: rating scale 0-100, 14 days after application
How it was run: as §2

[5] = test system: redroot pigweed (Amaranthus retroflexus, AMARE); assay: Post-emerge test, greenhouse herbicide activity screening; details: rating scale 0-100 (0 no damage, 100 complete death), 14 days after application
How it was run: (§3)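 Applied at 15–1000 g ai/ha from acetone in 187 l/ha spray volume. Post-emergence applications included 0.25% v/v non-ionic surfactant and reached plants sown 8–21 days before. Pre-emergence applications were incorporated by surface watering. Efficacy or crop damage was rated on a 0–100 scale after 14 days.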

[6] = test system: velvetleaf (Abutilon theophrasti, ABUTH); assay: as above; details: rating scale 0-100 (0 no damage, 100 complete death), 14 days after application
How it was run: as §3

[7] = test system: large crabgrass (Digitaria sanguinalis, DIGSA); assay: as above; details: rating scale 0-100 (0 no damage, 100 complete death), 14 days after application
How it was run: as §3

[8] = test system: sicklepod (Cassia obtusifolia, CASOB); assay: as above; details: rating scale 0-100 (0 no damage, 100 complete death), 14 days after application
How it was run: as §3

[9] = test system: ivyleaf morningglory (Ipomoea hederacea, IPOHE); assay: as above; details: rating scale 0-100 (0 no damage, 100 complete death), 14 days after application
How it was run: as §3

[10] = test system: johnsongrass (Sorghum halepense, SORHA); assay: as above; details: rating scale 0-100 (0 no damage, 100 complete death), 14 days after application
How it was run: as §3

[11] = test system: green foxtail (Setaria viridis, SETVI); assay: as above; details: rating scale 0-100 (0 no damage, 100 complete death), 14 days after application
How it was run: as §3

[12] = test system: lambsquarters (Chenopodium album, CHEAL); assay: as above; details: rating scale 0-100 (0 no damage, 100 complete death), 14 days after application
How it was run: as §3

[13] = test system: barnyardgrass (Echinochloa crus-galli, ECHCG); assay: as above; details: rating scale 0-100 (0 no damage, 100 complete death), 14 days after application
How it was run: as §3

[14] = test system: redroot pigweed (Amaranthus retroflexus, AMARE); assay: Pre-emerge test, greenhouse herbicide activity screening; details: rating scale 0-100, 14 days after application
How it was run: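 Herbicidal damage is scored 0 (none) to 100 (complete plant death) two weeks after a simulated field spray. Rates span 15–1000 g ai/ha, delivered in acetone at 187 l/ha. For post-emergence treatments, plants have 2–3 leaves and the spray carries 0.25% v/v non-ionic surfactant.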

[15] = test system: velvetleaf (Abutilon theophrasti, ABUTH); assay: as above; details: rating scale 0-100, 14 days after application
How it was run: as §1

[16] = test system: large crabgrass (Digitaria sanguinalis, DIGSA); assay: as above; details: rating scale 0-100, 14 days after application
How it was run: as §1

[17] = test system: common ragweed (Ambrosia artemisizfolia L., AMBEL); assay: as above; details: rating scale 0-100, 14 days after application
How it was run: as §1

[18] = test system: sicklepod (Cassia obtusifolia, CASOB); assay: as above; details: rating scale 0-100, 14 days after application
How it was run: as §1

[19] = test system: ivyleaf morningglory (Ipomoea hederacea, IPOHE); assay: as above; details: rating scale 0-100, 14 days after application
How it was run: as §1

[20] = test system: johnsongrass (Sorghum halepense, SORHA); assay: as above; details: rating scale 0-100, 14 days after application
How it was run: as §1

[21] = test system: green foxtail (Setaria viridis, SETVI); assay: as above; details: rating scale 0-100, 14 days after application
How it was run: as §1

[22] = test system: lambsquarters (Chenopodium album, CHEAL); assay: as above; details: rating scale 0-100, 14 days after application
How it was run: as §1

[23] = test system: barnyardgrass (Echinochloa crus-galli, ECHCG); assay: as above; details: rating scale 0-100, 14 days after application
How it was run: as §1

## COc1c(Cl)cc(F)c(-n2c(=O)cc(C(F)(F)F)n(C)c2=O)c1CC(C)(Cl)C(=O)OC(C(F)(F)F)C(F)(F)F (centres unmarked) [14-46]
[1]; Rate 63 g ai/ha
  Post-emerge phytotoxicity rating RICE (crop damage): 60
[1]; Rate 250 g ai/ha
  Post-emerge phytotoxicity rating RICE (crop damage): 100
[2]; Rate 63 g ai/ha
  Post-emerge phytotoxicity rating CORN (crop damage): 95
[2]; Rate 250 g ai/ha
  Post-emerge phytotoxicity rating CORN (crop damage): 100
[3]; 63 g ai/ha
  Pre-emerge phytotoxicity rating, crop damage RICE: 0
[3]; 250 g ai/ha
  Pre-emerge phytotoxicity rating, crop damage RICE: 30
[4]; 63 g ai/ha
  Pre-emerge phytotoxicity rating, crop damage CORN: 0
[4]; 250 g ai/ha
  Pre-emerge phytotoxicity rating, crop damage CORN: 0
[5]; Rate 63 g ai/ha
  Post-emerge Herbicidal Activity, phytotoxicity rating AMARE: 95
[5]; Rate 250 g ai/ha
  Post-emerge Herbicidal Activity, phytotoxicity rating AMARE: 100
[6]; Rate 63 g ai/ha
  Post-emerge Herbicidal Activity, phytotoxicity rating ABUTH: 100
[6]; Rate 250 g ai/ha
  Post-emerge Herbicidal Activity, phytotoxicity rating ABUTH: 100
[7]; Rate 63 g ai/ha
  Post-emerge Herbicidal Activity, phytotoxicity rating DIGSA: 80
[7]; Rate 250 g ai/ha
  Post-emerge Herbicidal Activity, phytotoxicity rating DIGSA: 100
[8]; Rate 63 g ai/ha
  Post-emerge Herbicidal Activity, phytotoxicity rating CASOB: 60
[8]; Rate 250 g ai/ha
  Post-emerge Herbicidal Activity, phytotoxicity rating CASOB: 90
[9]; Rate 63 g ai/ha
  Post-emerge Herbicidal Activity, phytotoxicity rating IPOHE: 100
[9]; Rate 250 g ai/ha
  Post-emerge Herbicidal Activity, phytotoxicity rating IPOHE: 100
[10]; Rate 63 g ai/ha
  Post-emerge Herbicidal Activity, phytotoxicity rating SORHA: 80
[10]; Rate 250 g ai/ha
  Post-emerge Herbicidal Activity, phytotoxicity rating SORHA: 90
[11]; Rate 63 g ai/ha
  Post-emerge Herbicidal Activity, phytotoxicity rating SETVI: 90
[11]; Rate 250 g ai/ha
  Post-emerge Herbicidal Activity, phytotoxicity rating SETVI: 100
[12]; Rate 63 g ai/ha
  Post-emerge Herbicidal Activity, phytotoxicity rating CHEAL: 100
[12]; Rate 250 g ai/ha
  Post-emerge Herbicidal Activity, phytotoxicity rating CHEAL: 100
[13]; Rate 63 g ai/ha
  Post-emerge Herbicidal Activity, phytotoxicity rating ECHCG: 100
[13]; Rate 250 g ai/ha
  Post-emerge Herbicidal Activity, phytotoxicity rating ECHCG: 100
[14]; 63 g ai/ha
  Pre-emerge herbicidal activity, phytotoxicity rating AMARE: 60
[14]; 250 g ai/ha
  Pre-emerge herbicidal activity, phytotoxicity rating AMARE: 95
[15]; 63 g ai/ha
  Pre-emerge herbicidal activity, phytotoxicity rating ABUTH: 80
[15]; 250 g ai/ha
  Pre-emerge herbicidal activity, phytotoxicity rating ABUTH: 100
[16]; 63 g ai/ha
  Pre-emerge herbicidal activity, phytotoxicity rating DIGSA: 0
[16]; 250 g ai/ha
  Pre-emerge herbicidal activity, phytotoxicity rating DIGSA: 0
[17]; 63 g ai/ha
  Pre-emerge herbicidal activity, phytotoxicity rating AMBEL: 50
[17]; 250 g ai/ha
  Pre-emerge herbicidal activity, phytotoxicity rating AMBEL: 100
[18]; 63 g ai/ha
  Pre-emerge herbicidal activity, phytotoxicity rating CASOB: 0
[18]; 250 g ai/ha
  Pre-emerge herbicidal activity, phytotoxicity rating CASOB: 0
[19]; 63 g ai/ha
  Pre-emerge herbicidal activity, phytotoxicity rating IPOHE: 0
[19]; 250 g ai/ha
  Pre-emerge herbicidal activity, phytotoxicity rating IPOHE: 0
[20]; 63 g ai/ha
  Pre-emerge herbicidal activity, phytotoxicity rating SORHA: 0
[20]; 250 g ai/ha
  Pre-emerge herbicidal activity, phytotoxicity rating SORHA: 0
[21]; 63 g ai/ha
  Pre-emerge herbicidal activity, phytotoxicity rating SETVI: 0
[21]; 250 g ai/ha
  Pre-emerge herbicidal activity, phytotoxicity rating SETVI: 0
[22]; 63 g ai/ha
  Pre-emerge herbicidal activity, phytotoxicity rating CHEAL: 0
[22]; 250 g ai/ha
  Pre-emerge herbicidal activity, phytotoxicity rating CHEAL: 90
[23]; 63 g ai/ha
  Pre-emerge herbicidal activity, phytotoxicity rating ECHCG: 0
[23]; 250 g ai/ha
  Pre-emerge herbicidal activity, phytotoxicity rating ECHCG: 0

## C=COC(=O)C(C)(Cl)Cc1c(OC)c(Cl)cc(F)c1-n1c(=O)cc(C(F)(F)F)n(C)c1=O (centres unmarked) [14-42]
[1]; Rate 63 g ai/ha
  Post-emerge phytotoxicity rating RICE (crop damage): 95
[1]; Rate 250 g ai/ha
  Post-emerge phytotoxicity rating RICE (crop damage): 100
[2]; Rate 63 g ai/ha
  Post-emerge phytotoxicity rating CORN (crop damage): 100
[2]; Rate 250 g ai/ha
  Post-emerge phytotoxicity rating CORN (crop damage): 100
[3]; 63 g ai/ha
  Pre-emerge phytotoxicity rating, crop damage RICE: 10
[3]; 250 g ai/ha
  Pre-emerge phytotoxicity rating, crop damage RICE: 30
[4]; 63 g ai/ha
  Pre-emerge phytotoxicity rating, crop damage CORN: 0
[4]; 250 g ai/ha
  Pre-emerge phytotoxicity rating, crop damage CORN: 20
[5]; Rate 63 g ai/ha
  Post-emerge Herbicidal Activity, phytotoxicity rating AMARE: 100
[5]; Rate 250 g ai/ha
  Post-emerge Herbicidal Activity, phytotoxicity rating AMARE: 100
[6]; Rate 63 g ai/ha
  Post-emerge Herbicidal Activity, phytotoxicity rating ABUTH: 100
[6]; Rate 250 g ai/ha
  Post-emerge Herbicidal Activity, phytotoxicity rating ABUTH: 100
[7]; Rate 63 g ai/ha
  Post-emerge Herbicidal Activity, phytotoxicity rating DIGSA: 95
[7]; Rate 250 g ai/ha
  Post-emerge Herbicidal Activity, phytotoxicity rating DIGSA: 100
[8]; Rate 63 g ai/ha
  Post-emerge Herbicidal Activity, phytotoxicity rating CASOB: 60
[8]; Rate 250 g ai/ha
  Post-emerge Herbicidal Activity, phytotoxicity rating CASOB: 90
[9]; Rate 63 g ai/ha
  Post-emerge Herbicidal Activity, phytotoxicity rating IPOHE: 100
[9]; Rate 250 g ai/ha
  Post-emerge Herbicidal Activity, phytotoxicity rating IPOHE: 100
[10]; Rate 63 g ai/ha
  Post-emerge Herbicidal Activity, phytotoxicity rating SORHA: 60
[10]; Rate 250 g ai/ha
  Post-emerge Herbicidal Activity, phytotoxicity rating SORHA: 95
[11]; Rate 63 g ai/ha
  Post-emerge Herbicidal Activity, phytotoxicity rating SETVI: 100
[11]; Rate 250 g ai/ha
  Post-emerge Herbicidal Activity, phytotoxicity rating SETVI: 100
[12]; Rate 63 g ai/ha
  Post-emerge Herbicidal Activity, phytotoxicity rating CHEAL: 100
[12]; Rate 250 g ai/ha
  Post-emerge Herbicidal Activity, phytotoxicity rating CHEAL: 100
[13]; Rate 63 g ai/ha
  Post-emerge Herbicidal Activity, phytotoxicity rating ECHCG: 100
[13]; Rate 250 g ai/ha
  Post-emerge Herbicidal Activity, phytotoxicity rating ECHCG: 100
[14]; 63 g ai/ha
  Pre-emerge herbicidal activity, phytotoxicity rating AMARE: 95
[14]; 250 g ai/ha
  Pre-emerge herbicidal activity, phytotoxicity rating AMARE: 100
[15]; 63 g ai/ha
  Pre-emerge herbicidal activity, phytotoxicity rating ABUTH: 80
[15]; 250 g ai/ha
  Pre-emerge herbicidal activity, phytotoxicity rating ABUTH: 95
[16]; 63 g ai/ha
  Pre-emerge herbicidal activity, phytotoxicity rating DIGSA: 0
[16]; 250 g ai/ha
  Pre-emerge herbicidal activity, phytotoxicity rating DIGSA: 50
[17]; 63 g ai/ha
  Pre-emerge herbicidal activity, phytotoxicity rating AMBEL: 0
[17]; 250 g ai/ha
  Pre-emerge herbicidal activity, phytotoxicity rating AMBEL: 100
[18]; 63 g ai/ha
  Pre-emerge herbicidal activity, phytotoxicity rating CASOB: 0
[18]; 250 g ai/ha
  Pre-emerge herbicidal activity, phytotoxicity rating CASOB: 0
[19]; 63 g ai/ha
  Pre-emerge herbicidal activity, phytotoxicity rating IPOHE: 0
[19]; 250 g ai/ha
  Pre-emerge herbicidal activity, phytotoxicity rating IPOHE: 30
[20]; 63 g ai/ha
  Pre-emerge herbicidal activity, phytotoxicity rating SORHA: 0
[20]; 250 g ai/ha
  Pre-emerge herbicidal activity, phytotoxicity rating SORHA: 0
[21]; 63 g ai/ha
  Pre-emerge herbicidal activity, phytotoxicity rating SETVI: 30
[21]; 250 g ai/ha
  Pre-emerge herbicidal activity, phytotoxicity rating SETVI: 80
[22]; 63 g ai/ha
  Pre-emerge herbicidal activity, phytotoxicity rating CHEAL: 90
[22]; 250 g ai/ha
  Pre-emerge herbicidal activity, phytotoxicity rating CHEAL: 100
[23]; 63 g ai/ha
  Pre-emerge herbicidal activity, phytotoxicity rating ECHCG: 0
[23]; 250 g ai/ha
  Pre-emerge herbicidal activity, phytotoxicity rating ECHCG: 20
